# Results from US10076116B2, “N-cycloalkyl-N-(biheterocyclymethylene)-(thio)carboxamide derivatives” (BAYER CROPSCIENCE AKTIENGESELLSCHAFT, priority 2013, dated 2018).
# What was measured:
# Alternaria brassicae = experiment: In vivo preventive test on Alternaria brassicae (leaf spot on radish); conditions: for efficacy: 500 ppm of active ingredient, radish plants sprayed 24 hours before inoculation, evaluated 6 days after inoculation; for Efficacy (Table A1) / Efficacy (Table A2): dose 500 ppm, radish, 6 days after inoculation
# Experimental: Example A: In Vivo Preventive Test on Alternaria brassicae (Leaf Spot on Radish) Solvent: 5% by volume of Dimethyl sulfoxide • 10% by volume of Acetone Emulsifier: 1 μL of TWEEN® 80 (Polyoxyethylene (20) sorbitan monooleate) per mg of active ingredient The active ingredients are made soluble and homogenized in a mixture of Dimethyl sulfoxide/Acetone/TWEEN® 80 and then diluted in water to the desired concentration. The young plants of radish are treated by spraying the active ingredient prepared as described above. Control plants are treated only with an aqueous solution of Acetone/Dimethyl sulfoxide/TWEEN® 80. After 24 hours, the plants are contaminated by spraying the leaves with an aqueous suspension of Alternaria brassicae spores. The contaminated radish plants are incubated for 6 days at 20° C. and at 100% relative humidity. The test is evaluated 6 days after the inoculation. 0% means an efficacy which corresponds to that of the control plants while an efficacy of 100% means that no disease is observed.
# Pyrenophora teres = experiment: In vivo preventive test on Pyrenophora teres (net blotch on barley); conditions: for efficacy: 500 ppm of active ingredient, barley plants, evaluated 14 days after inoculation; for Efficacy (Table D1): dose 500 ppm, barley
# Experimental: Example D: In Vivo Preventive Test on Pvrenophora Teres (Net Blotch on Barley) Solvent: 5% by volume of Dimethyl sulfoxide • 10% by volume of Acetone Emulsifier: 1 μL of TWEEN® 80 per mg of active ingredient The active ingredients are made soluble and homogenized in a mixture of Dimethyl sulfoxide/Acetone/TWEEN® 80 and then diluted in water to the desired concentration. The young plants of barley are treated by spraying the active ingredient prepared as described above. Control plants are treated only with an aqueous solution of Acetone/Dimethyl sulfoxide/TWEEN® 80. After 24 hours, the plants are contaminated by spraying the leaves with an aqueous suspension of Pyrenophora teres spores. The contaminated barley plants are incubated for 48 hours at 20° C. and at 100% relative humidity and then for 12 days at 20° C. and at 70-80% relative humidity. The test is evaluated 14 days after the inoculation. 0% means an efficacy which corresponds to that of the control plants while an efficacy of 100% means that no disease is observed.
# [1] = log P by HPLC on reversed-phase column (C 18), EEC Directive 79/831 Annex V.A8; format: physicochemical; conditions: HPLC C 18, 40° C., 0.1% aqueous formic acid and acetonitrile, gradient 10% to 90% acetonitrile
# Experimental: In table 1, the log P values were determined in accordance with EEC Directive 79/831 Annex V.A8 by HPLC (High Performance Liquid Chromatography) on a reversed-phase column (C 18), using the method described below: Temperature: 40° C.; Mobile phases: 0.1% aqueous formic acid and acetonitrile; linear gradient from 10% acetonitrile to 90% acetonitrile. Calibration was carried out using unbranched alkan-2-ones (comprising 3 to 16 carbon atoms) with known log P values (determination of the log P values by the retention times using linear interpolation between two successive alkanones). lambda-max-values were determined using UV-spectra from 200 nm to 400 nm and the peak values of the chromatographic signals.
# Uromyces appendiculatus = experiment: In vivo preventive test on Uromyces appendiculatus (bean rust)
# Experimental: Example G: In Vivo Preventive Test on Uromvces Appendiculatus (Bean Rust) Solvent: 5% by volume of Dimethyl sulfoxide • 10% by volume of Acetone Emulsifier: 1 μL of TWEEN® 80 per mg of active ingredient The active ingredients are made soluble and homogenized in a mixture of Dimethyl sulfoxide/Acetone/TWEEN® 80 and then diluted in water to the desired concentration. The young plants of bean are treated by spraying the active ingredient prepared as described above. Control plants are treated only with an aqueous solution of Acetone/Dimethyl sulfoxide/TWEEN® 80. After 24 hours, the plants are contaminated by spraying the leaves with an aqueous suspension of Uromyces appendiculatus spores. The contaminated bean plants are incubated for 24 hours at 20° C. and at 100% relative humidity and then for 10 days at 20° C. and at 70-80% relative humidity. The test is evaluated 11 days after the inoculation. 0% means an efficacy which corresponds to that of the control plants while an efficacy of 100% means that no disease is observed.
# Botrytis cinerea = experiment: In vivo preventive test on Botrytis cinerea (grey mould); conditions: gherkin
# Experimental: Example B: In Vivo Preventive Test Botrvtis Cinerea (Grey Mould) Solvent: 5% by volume of Dimethyl sulfoxide • 10% by volume of Acetone Emulsifier: 1 μL of TWEEN® 80 per mg of active ingredient The active ingredients are made soluble and homogenized in a mixture of Dimethyl sulfoxide/Acetone/TWEEN® 80 and then diluted in water to the desired concentration. The young plants of gherkin are treated by spraying the active ingredient prepared as described above. Control plants are treated only with an aqueous solution of Acetone/Dimethyl sulfoxide/TWEEN® 80. After 24 hours, the plants are contaminated by spraying the leaves with an aqueous suspension of Botrytis cinerea spores. The contaminated gherkin plants are incubated for 4 to 5 days at 17° C. and at 90% relative humidity. The test is evaluated 4 to 5 days after the inoculation. 0% means an efficacy which corresponds to that of the control plants while an efficacy of 100% means that no disease is observed.
# Puccinia recondita = experiment: In vivo preventive test on Puccinia recondita (brown rust on wheat); conditions: wheat, compounds of this patent
# Experimental: Example C: In Vivo Preventive Test on Puccinia recondita (Brown Rust on Wheat) […]
# The young plants of wheat are treated by spraying the active ingredient prepared as described above. […]
# After 24 hours, the plants are contaminated by spraying the leaves with an aqueous suspension of Puccinia recondita spores. The contaminated wheat plants are incubated for 24 hours at 20° C. and at 100% relative humidity and then for 10 days at 20° C. and at 70-80% relative humidity.
# The test is evaluated 11 days after the inoculation. 0% means an efficacy which corresponds to that of the control plants while an efficacy of 100% means that no disease is observed.
smiles,measurement,setting,value
"Cn1nc(C(F)F)c(C(=O)N(Cc2nn(-c3ccccc3)cc2-c2cccnc2)C2CC2)c1F [CMP1, N-cyclopropyl-3-(difluoromethyl)-5-fluoro-1-methyl-N-{[1-phenyl-4-(pyridin-3-yl)-1H-pyrazol-3-yl]methyl}-1H-pyrazole-4-carboxamide, reference compound]",efficacy,Alternaria brassicae,no protection
same,Efficacy (Table A1),Alternaria brassicae,0%
"Cn1nc(C(F)F)c(C(=O)N(Cc2sc3ccccc3c2-c2cccnc2)C2CC2)c1F [CMP4, N-cyclopropyl-3-(difluoromethyl)-5-fluoro-1-methyl-N-{[3-(pyridin-3-yl)-1-benzothiophen-2-yl]methyl}-1H-pyrazole-4-carboxamide, reference compound]",Efficacy (Table A2),Alternaria brassicae,43%
"COc1cccc(-c2c(CN(C(=O)c3c(C(F)F)nn(C)c3F)C3CC3)sc3ccccc23)n1 [CMP5, N-cyclopropyl-3-(difluoromethyl)-5-fluoro-N-{[3-(6-methoxypyridin-2-yl)-1-benzothiophen-2-yl]methyl}-1-methyl-1H-pyrazole-4-carboxamide]",efficacy,Pyrenophora teres,no protection
same,Efficacy (Table D1),Pyrenophora teres,0%
same,Efficacy (Table A2),Alternaria brassicae,0%
"Cn1nc(C(F)F)c(C(=O)N(Cc2sc3ccccc3c2-c2ccncc2)C2CC2)c1F [CMP6, N-cyclopropyl-3-(difluoromethyl)-5-fluoro-1-methyl-N-{[3-(pyridin-4-yl)-1-benzothiophen-2-yl]methyl}-1H-pyrazole-4-carboxamide]",efficacy,Pyrenophora teres,no protection
same,Efficacy (Table D1),Pyrenophora teres,0%
Cn1nc(C(F)F)c(C(=O)N(Cc2nn(-c3ccccc3)cc2-c2ccc3c(ccn3C)c2)C2CC2)c1F [I.01],logP,[1],4.16
same,Efficacy (Table A1),Alternaria brassicae,71%
Cn1nc(C(F)F)c(C(=O)N(Cc2nn(-c3ccccc3)cc2-c2csc3ccccc23)C2CC2)c1F [I.03],logP,[1],4.53
same,Efficacy (Table A1),Alternaria brassicae,93%
Cn1nc(C(F)F)c(C(=O)N(Cc2ncc(C(F)(F)F)cc2-c2ccnc3cc(Cl)ccc23)C2CC2)c1F [I.29],logP,[1],3.78
same,Efficacy (Table G1),Uromyces appendiculatus; dose 100 ppm,67%
same,Efficacy (Table G1),Uromyces appendiculatus; dose 500 ppm,100%
same,Efficacy (Table B1),Botrytis cinerea; dose 100 ppm,39%
same,Efficacy (Table B1),Botrytis cinerea; dose 500 ppm,83%
Cn1nc(C(F)F)c(C(=O)N(Cc2ncc(C(F)(F)F)cc2-c2coc3ccccc23)C2CC2)c1F [I.31],logP,[1],4.16
same,Efficacy at 100 ppm (Table C1),Puccinia recondita; 100 ppm,88%
same,Efficacy at 500 ppm (Table C1),Puccinia recondita; 500 ppm,94%
same,Efficacy (Table G1),Uromyces appendiculatus; dose 100 ppm,78%
same,Efficacy (Table G1),Uromyces appendiculatus; dose 500 ppm,97%
same,Efficacy (Table B1),Botrytis cinerea; dose 100 ppm,100%
same,Efficacy (Table B1),Botrytis cinerea; dose 500 ppm,100%
"Cn1nc(C(F)F)c(C(=O)N(Cc2sc3ccccc3c2-c2coc3ccccc23)C2CC2)c1F [I.53, N-{[3-(1-benzofuran-3-yl)-1-benzothiophen-2-yl]methyl}-N-cyclopropyl-3-(difluoromethyl)-5-fluoro-1-methyl-1H-pyrazole-4-carboxamide]",Efficacy (Table D1),Pyrenophora teres,83%
same,chromatographic logP,[1]; reversed-phase HPLC column (C 18),4.61
same,efficacy,Alternaria brassicae; listed as 1.53,total protection
same,Efficacy (Table A2),Alternaria brassicae,100%
